Assay results from ChEMBL document CHEMBL4011651, “Discovery of the Irreversible Covalent FGFR Inhibitor 8-(3-(4-Acryloylpiperazin-1-yl)propyl)-6-(2,6-dichloro-3,5-dimethoxyphenyl)-2-(methylamino)pyrido[2,3-d]pyrimidin-7(8H)-one (PRN1371) for the Treatment of Solid Tumors” (J Med Chem, 2017).

Columns and labels:
[1] = in vitro; conditions: mouse, whole blood
[2] = AUC in cynomolgus monkey at 1.23 mg/kg, iv; type: ADME, organism-based, Macaca fascicularis; conditions: in vivo
[3] = in vitro; conditions: human, plasma
[4] = Volume of distribution at steady state in Sprague-Dawley rat at 2 mg/kg, iv; type: ADME, organism-based; conditions: in vivo, read-out: Vdss
[5] = AUC in Beagle dog at 2 mg/kg, iv; type: ADME, organism-based, Canis lupus familiaris; conditions: in vivo
[6] = Half life in Sprague-Dawley rat at 20 mg/kg, po; type: ADME, organism-based; conditions: in vivo
[7] = Cmax in Beagle dog at 10 mg/kg, po; type: ADME, organism-based, Canis lupus familiaris; parameters: dose 10 mg/kg, route oral; conditions: in vivo
[8] = Clearance in Sprague-Dawley rat at 2 mg/kg, iv; type: ADME, organism-based; conditions: in vivo
[9] = Half life in cynomolgus monkey at 10 mg/kg, po; type: ADME, organism-based, Macaca fascicularis; conditions: in vivo
[10] = Volume of distribution at steady state in cynomolgus monkey at 1.23 mg/kg, iv; type: ADME, organism-based, Macaca fascicularis; conditions: in vivo, read-out: Vdss
[11] = Clearance in Beagle dog at 2 mg/kg, iv; type: ADME, organism-based, Canis lupus familiaris; conditions: in vivo
[12] = Cmax in cynomolgus monkey at 1.23 mg/kg, iv; type: ADME, organism-based, Macaca fascicularis; parameters: dose 1.23 mg/kg, route intravenous; conditions: in vivo
[13] = Oral bioavailability in cynomolgus monkey at 10 mg/kg; type: ADME, organism-based, Macaca fascicularis; conditions: in vivo
[14] = AUC in Beagle dog at 10 mg/kg, po; type: ADME, organism-based, Canis lupus familiaris; conditions: in vivo
[15] = in vitro; conditions: human, whole blood
[16] = Half life in Sprague-Dawley rat at 2 mg/kg, iv; type: ADME, organism-based; conditions: in vivo
[17] = Plasma concentration in rat at 10 mg/kg, po measured at 1 hr post dose; type: ADME, organism-based
[18] = Cmax in Beagle dog at 2 mg/kg, iv; type: ADME, organism-based, Canis lupus familiaris; parameters: dose 2 mg/kg, route intravenous; conditions: in vivo
[19] = AUC in cynomolgus monkey at 10 mg/kg, po; type: ADME, organism-based, Macaca fascicularis; conditions: in vivo
[20] = Half life in cynomolgus monkey at 1.23 mg/kg, iv; type: ADME, organism-based, Macaca fascicularis; conditions: in vivo
[21] = Cmax in Sprague-Dawley rat at 20 mg/kg, po; type: ADME, organism-based; parameters: dose 20 mg/kg, route oral; conditions: in vivo
[22] = AUC in Sprague-Dawley rat at 20 mg/kg, po; type: ADME, organism-based; conditions: in vivo
[23] = Cmax in Sprague-Dawley rat at 2 mg/kg, iv; type: ADME, organism-based; parameters: dose 2 mg/kg, route intravenous; conditions: in vivo
[24] = Volume of distribution at steady state in Beagle dog at 2 mg/kg, iv; type: ADME, organism-based, Canis lupus familiaris; conditions: in vivo, read-out: Vdss
[25] = Oral bioavailability in Beagle dog at 10 mg/kg; type: ADME, organism-based, Canis lupus familiaris; conditions: in vivo
[26] = Cmax in cynomolgus monkey at 10 mg/kg, po; type: ADME, organism-based, Macaca fascicularis; parameters: dose 10 mg/kg, route oral; conditions: in vivo
[27] = Clearance in cynomolgus monkey at 1.23 mg/kg, iv; type: ADME, organism-based, Macaca fascicularis; conditions: in vivo
[28] = in vivo; conditions: Sprague-Dawley, rat, iv, 2 mg/kg
[29] = system: Plasma; assay: Plasma concentration in rat at 10 mg/kg, po measured at 12 hrs post dose; type: ADME, organism-based; conditions: in vivo

`C=CC(=O)Nc1ccc(CCn2c(=O)c(-c3cc(OC)cc(OC)c3Cl)cc3cnc(NC)nc32)cn1` gave a half-life [1] of 51 min.

With `C=CC(=O)N1CCN(CCCn2c(=O)c(-c3c(Cl)c(OC)cc(OC)c3Cl)cc3cnc(NC)nc32)CC1` [PRN-1371] the AUC [2] was 472 ng·h/mL, the remaining at 2 h [3] was 70% and the Vd [4] was 7.2 L/kg. The AUC [5] was 284 ng·h/mL, the half-life [6] was 226 min and the Cmax [7] was 1100 ng/mL. For the same compound, the clearance [8] was 160 mL/min/kg, the half-life [9] was 29.2 min and the Vd [10] was 1.14 L/kg. The clearance [11] was 117 mL/min/kg, the Cmax [12] was 999 ng/mL and the bioavailability [13] was 2.3%. It also gave an AUC [14] of 1340 ng·h/mL, a remaining at 2 h [15] of 73% and a half-life [16] of 45.8 min. It also gave a concentration at 1 h [17] of 538 ng/mL, a Cmax [18] of 1090 ng/mL and an AUC [19] of 84.4 ng·h/mL. It also gave a half-life [20] of 20.9 min, a Cmax [21] of 1780 ng/mL and an AUC [22] of 4350 ng·h/mL. The Cmax [23] was 596 ng/mL, the Vd [24] was 2.9 L/kg and the bioavailability [25] was 94%. It also gave a Cmax [26] of 95.8 ng/mL, a clearance [27] of 42.9 mL/min/kg and an AUC [28] of 208 ng·h/mL. The Drug uptake [29] was “Not Active”.
